Format in all cases: cell-based
Test [1] relates to control and TP53/RB1-inactivated 22PC (PRAD) cells. The test can be described thus: Monotherapy cytotoxicity assay (CellTiter-Glo viability). Conditions: 5 nM selinexor; TP53/RB1 inactivation relative to wild-type controls or single gene loss-of-function counterparts. An excerpt: (§1) FIGS. 2A-2E. Loss of TP53/RB1 function induces exportin 1 expression and sensitivity to selinexor. FIG. 2A: XPO1 mRNA expression in LUAD clinical specimens, categorized by their TP53/RB1 status. Data obtained from LUAD TCGA (PanCancer, n=237 wild type (wt), 33 mutated), LUAD OncoSG (OncoSG, Nat Genetics 2020, n=109 wt, 6 mutated) and PRAD TCGA (PanCancer, n=367 wt, 6 mutated)^14,15. FIG. 2B: Western blot showing exportin 1 protein abundance in isogenic H1563 (LUAD) and 22PC (PRAD) cell lines with or without induced loss of function of TP53 and/or RB1 and western blot quantification (n=2) (see methods). FIG. 2C: Barplot showing a representative biological replicate of an experiment assessing viability of control and TP53/RB1-loss (DKO) H1563, 22PC and LnCap (PRAD) cells treated with 5 nM selinexor. […] For FIGS. 2B-2C, p-values were calculated using the Student's t-test (unpaired, heterogeneous variances, two-tailed). p-value legend: *<0.05, **<0.01, ***<0.001. […]
(§2) Cytotoxic assays were performed as described in^22 with a total of 1,500 cells/well seeded in 96-well plates and treated with the drugs/doses described for 96 hours. Viability was assessed with the CellTiter-Glo 2.0 Assay (Promega, G9242) as indicated by manufacturer, and normalized to the untreated control wells.
A general note: ATP-based viability assays read luminescence as a measure of living cells.

For test [2], the system named is control and TP53/RB1-inactivated H1563 (LUAD) cells. The description is as above. Conditions: 5 nM selinexor; TP53/RB1 inactivation relative to wild-type controls or single gene loss-of-function counterparts.
Description: as §1, §2

Test [3] deals with TP53/RB1-inactivated 22PC and H1563 cell lines. The test can be described thus: Cell cycle assay by flow cytometry. The settings on record: 4 days, even at substantially cytotoxic concentrations of selinexor. The protocol:
FIGS. 8D-8E: Proliferation assays were performed in TP53/RB1-inactivated 22PC and H 1563 cell lines and the cell cycle profile was assessed in those being treated with selinexor. […] Cell cycle was studied by flow cytometry. Cells were seeded in 6-well plates and treated for 4 days with selinexor at the indicated doses. At day 4, cells were washed with PBS (Lonza) and fixed in 70% ethanol for a maximum period of 1 week at 4° C. Next, cells were washed twice with PBS (Lonza) and incubated with FxCycle PI/RNAse Staining solution (Invitrogen) for 1 h at RT. Cell cycle was determined using a BD LSRFortessa cell analyzer (BD Bioscience) and cell cycle phases were determined using FlowJo® software v10.

Test [4] deals with DKO 22PC and DKO LnCap/AR cells. Briefly: NE marker, AR and SOX2 expression in DKO cells treated in vitro. The settings on record: enzalutamide 150 nM, selinexor 5 nM or combination, 4 days; absence of exogenous SOX2.

Structures are written as SMILES.

Regarding `O=C(/C=C\n1cnc(-c2cc(C(F)(F)F)cc(C(F)(F)F)c2)n1)NNc1cnccn1` [selinexor], the “selinexor sensitivity (viability)” value in test [1] and in test [2] was “increased selinexor sensitivity” in each case. Besides, the cell cycle profile entry in test [3] is listed as “no significant shifts in cell cycle profile”. Also, the “NE marker and AR expression” value in test [4] is “prevent enzalutamide-induced NE marker expression and AR suppression”.

These data come from patent US20260137678A1, “METHODS FOR TREATING OR PREVENTING NEUROENDOCRINE TUMOR FORMATION USING XPO1 INHIBITORS” (priority 2022, published 2026).
